Reference: the NIST ThermoML archive (doi:10.1016/j.jct.2008.08.007)
± gives the expanded uncertainty stated by the source.

Assay: molar heat capacity at constant pressure
Details: 101.33 kPa, Crystal, Small sample (50 mg) DSC

molar heat capacity at constant pressure (288.15 K) | molar heat capacity at constant pressure (293.15 K) | molar heat capacity at constant pressure (298.15 K) | molar heat capacity at constant pressure (303.15 K) | molar heat capacity at constant pressure (308.15 K) | molar heat capacity at constant pressure (313.15 K) | molar heat capacity at constant pressure (318.15 K) | molar heat capacity at constant pressure (323.15 K) | molar heat capacity at constant pressure (328.15 K) | molar heat capacity at constant pressure (333.15 K) | molar heat capacity at constant pressure (338.15 K) | molar heat capacity at constant pressure (343.15 K) | molar heat capacity at constant pressure (348.15 K) | molar heat capacity at constant pressure (353.15 K) | molar heat capacity at constant pressure (358.15 K) | SMILES
269.8 ± 5.8 J/K/mol | 276.4 ± 5.7 J/K/mol | 276.9 ± 6 J/K/mol | 278 ± 6.7 J/K/mol | 283.3 ± 6.4 J/K/mol | 281 ± 7 J/K/mol | 281.4 ± 7.2 J/K/mol | 292.7 ± 7.3 J/K/mol | 293.1 ± 7 J/K/mol | 299.4 ± 6.9 J/K/mol | 303.8 ± 6.9 J/K/mol | 308.7 ± 6.8 J/K/mol | 319.7 ± 6.6 J/K/mol | 325.2 ± 6.5 J/K/mol | 332 ± 6.4 J/K/mol | CC(=O)N[C@@H](C=O)[C@@H](O)[C@H](O)[C@H](O)CO [N-acetyl-D-glucosamine]
171.3 ± 4.2 J/K/mol | 179.4 ± 3.5 J/K/mol | 183.2 ± 3.7 J/K/mol | 188.8 ± 3.9 J/K/mol | 193.9 ± 3.8 J/K/mol | 201.3 ± 4 J/K/mol | 209 ± 3.9 J/K/mol | 224.6 ± 4.2 J/K/mol | 245.1 ± 4.3 J/K/mol | – | – | – | – | – | – | O=C[C@H](O)[C@H](O)[C@H](O)CO [D-ribose]
188.7 ± 6.2 J/K/mol | 200.7 ± 6.1 J/K/mol | 206.6 ± 6.1 J/K/mol | 215 ± 5.5 J/K/mol | 223.3 ± 6.8 J/K/mol | 228.2 ± 5.6 J/K/mol | 231.6 ± 5.6 J/K/mol | 234.5 ± 5.7 J/K/mol | 236.5 ± 6.7 J/K/mol | 242.1 ± 5.3 J/K/mol | 245.2 ± 5.4 J/K/mol | 249 ± 5.6 J/K/mol | 252.4 ± 6.3 J/K/mol | 254.1 ± 6.3 J/K/mol | 260.2 ± 7 J/K/mol | O=C[C@@H](O)[C@@H](O)[C@H](O)[C@H](O)CO [D-mannose]
203.3 ± 3.5 J/K/mol | 210.7 ± 3.6 J/K/mol | 213.7 ± 4.9 J/K/mol | 217.5 ± 3.8 J/K/mol | 222.3 ± 4.8 J/K/mol | 227.1 ± 4.5 J/K/mol | 229.4 ± 3.9 J/K/mol | 235.6 ± 5.1 J/K/mol | 236.8 ± 4.6 J/K/mol | 242.8 ± 4.4 J/K/mol | 247 ± 4 J/K/mol | 251.2 ± 4.8 J/K/mol | 254.7 ± 4.6 J/K/mol | 257.5 ± 4.3 J/K/mol | 265.1 ± 4.8 J/K/mol | O=C[C@H](O)[C@@H](O)[C@@H](O)[C@H](O)CO [(+)-galactose]

Further lines, the compound ahead of its results:

SMILES | molar heat capacity at constant pressure (288.15 K) | molar heat capacity at constant pressure (293.15 K) | molar heat capacity at constant pressure (298.15 K) | molar heat capacity at constant pressure (303.15 K) | molar heat capacity at constant pressure (308.15 K) | molar heat capacity at constant pressure (313.15 K) | molar heat capacity at constant pressure (318.15 K) | molar heat capacity at constant pressure (323.15 K) | molar heat capacity at constant pressure (328.15 K) | molar heat capacity at constant pressure (333.15 K) | molar heat capacity at constant pressure (338.15 K) | molar heat capacity at constant pressure (343.15 K) | molar heat capacity at constant pressure (348.15 K) | molar heat capacity at constant pressure (353.15 K) | molar heat capacity at constant pressure (358.15 K)
OC[C@H]1O[C@@](CO)(O[C@H]2O[C@H](CO)[C@@H](O)[C@H](O)[C@H]2O)[C@@H](O)[C@@H]1O [D-sucrose] | 408.5 ± 7.6 J/K/mol | 416.6 ± 6.9 J/K/mol | 424.3 ± 7 J/K/mol | 429.4 ± 7.7 J/K/mol | 437.5 ± 8.2 J/K/mol | 445.5 ± 8.2 J/K/mol | 451 ± 8 J/K/mol | 466.2 ± 8 J/K/mol | 472.6 ± 8 J/K/mol | 482.5 ± 8.5 J/K/mol | 490.3 ± 8.1 J/K/mol | 498.8 ± 7.8 J/K/mol | 506.7 ± 7.9 J/K/mol | 513.9 ± 8.2 J/K/mol | 522 ± 8.1 J/K/mol
O=C(CO)[C@@H](O)[C@H](O)[C@H](O)CO [D-fructose] | 220.3 ± 7.5 J/K/mol | 223.6 ± 7.5 J/K/mol | 227.7 ± 8.4 J/K/mol | 233.3 ± 7.2 J/K/mol | 236.9 ± 7.6 J/K/mol | 242.4 ± 7.6 J/K/mol | 247.3 ± 7.8 J/K/mol | 251.5 ± 8 J/K/mol | 251.8 ± 7.9 J/K/mol | 255.1 ± 8.6 J/K/mol | 259.6 ± 7.9 J/K/mol | 260.9 ± 7.6 J/K/mol | 266.4 ± 8.1 J/K/mol | 275.3 ± 8.7 J/K/mol | 290.4 ± 7.9 J/K/mol
OC[C@H]1OC(O)C[C@@H](O)[C@@H]1O (stereo partly drawn) [2-deoxy-D-glucose] | 189.6 ± 6 J/K/mol | 195.8 ± 6.4 J/K/mol | 200.2 ± 5.9 J/K/mol | 201 ± 5.9 J/K/mol | 204.5 ± 6 J/K/mol | 206.9 ± 6.1 J/K/mol | 209 ± 5.6 J/K/mol | 213.6 ± 5.2 J/K/mol | 214.7 ± 5.3 J/K/mol | 218.4 ± 5.5 J/K/mol | 224.9 ± 5.4 J/K/mol | 226.4 ± 4 J/K/mol | 233 ± 3.9 J/K/mol | 235.4 ± 4.2 J/K/mol | 244 ± 4.3 J/K/mol
CO[C@H]1O[C@H](CO)[C@@H](O)[C@H](O)[C@H]1O [methyl-α-D-glucopyranoside] | 232.1 ± 4.3 J/K/mol | 231 ± 4.3 J/K/mol | 233.7 ± 4.5 J/K/mol | 235.7 ± 4.6 J/K/mol | 240.7 ± 4.8 J/K/mol | 247.5 ± 4.9 J/K/mol | 255.9 ± 5 J/K/mol | 264.7 ± 5.3 J/K/mol | 274.2 ± 5.6 J/K/mol | 283.6 ± 5 J/K/mol | 293.4 ± 5.6 J/K/mol | 302.9 ± 5.1 J/K/mol | 311.5 ± 5.2 J/K/mol | 319 ± 5.2 J/K/mol | 325.5 ± 5.4 J/K/mol
